{
  "source": "patent US20240066051A1",
  "about": "(priority 2022, published 2024)",
  "key": {"[1]": {"target": "SARS-CoV-2 S-protein RBD N501Y (Severe acute respiratory syndrome coronavirus 2, UniProt P0DTC2, N501Y)", "format": "binding"}, "[2]": {"target": "SARS-CoV-2 S-protein RBD T478K (Severe acute respiratory syndrome coronavirus 2, UniProt P0DTC2, T478K)", "format": "binding"}, "[3]": {"target": "SARS-CoV-2 S-protein RBD E484Q (Severe acute respiratory syndrome coronavirus 2, UniProt P0DTC2, E484Q)", "format": "binding"}, "[4]": {"target": "SARS-CoV-2 S-protein RBD L452R (Severe acute respiratory syndrome coronavirus 2, UniProt P0DTC2, L452R)", "format": "binding"}, "[5]": {"target": "SARS-CoV-2 S-protein RBD L452R + T478K (Severe acute respiratory syndrome coronavirus 2, UniProt P0DTC2, L452R/T478K)", "format": "binding"}, "[6]": {"tested_on": "S-protein RBD mutants (VOC)", "format": "binding, SARS-CoV-2"}, "[7]": {"tested_on": "SARS-CoV-2 pseudotyped viral particles (Delta variant)", "format": "binding"}, "[8]": {"target": "S-protein RBD L452R+T478K mutant (Severe acute respiratory syndrome coronavirus 2, UniProt P0DTC2, L452R/T478K)"}, "[9]": {"tested_on": "SARS-CoV-2 pseudotyped viral particles (Delta variant)", "format": "cell-based"}},
  "data": [
    {"substance": "heparin", "values": [
      {"measurement": "affinity to heparin compared with the WT RBD", "setting": "[1]", "result": "higher affinity"},
      {"measurement": "ka", "setting": "[1]", "result": "1.7 × 10^4 1/MS"},
      {"measurement": "kd", "setting": "[1]", "result": "4.2 × 10^−4 1/S"},
      {"measurement": "ka", "setting": "[2]", "result": "1.2 × 10^4 1/MS"},
      {"measurement": "kd", "setting": "[2]", "result": "6.0 × 10^−3 1/S"},
      {"measurement": "ka", "setting": "[3]", "result": "5.2 × 10^4 1/MS"},
      {"measurement": "kd", "setting": "[3]", "result": "0.011 1/S"},
      {"measurement": "affinity to heparin compared with the WT RBD", "setting": "[4]", "result": "lower affinity"},
      {"measurement": "ka", "setting": "[4]", "result": "161 1/MS"},
      {"measurement": "kd", "setting": "[4]", "result": "1.3 × 10^−3 1/S"},
      {"measurement": "ka", "setting": "[5]", "result": "2.3 × 10^4 1/MS"},
      {"measurement": "kd", "setting": "[5]", "result": "0.014 1/S"}
    ]},
    {"substance": "pentosan polysulfate [PPS]", "values": [
      {"measurement": "inhibition of S-protein RBD mutant-heparin interaction compared with heparin", "setting": "[6]", "result": "stronger inhibition"},
      {"measurement": "inhibition of pseudotyped viral particle binding to heparin surface compared with heparin control", "setting": "[7]", "result": "stronger inhibition"},
      {"measurement": "inhibition of S-protein RBD mutant-heparin interaction compared with heparin", "setting": "[8]", "result": "comparable inhibition to heparin"},
      {"measurement": "IC50 for viral inhibition", "setting": "[9]", "result": 0.07, "unit": "µg/mL"}
    ]},
    {"substance": "mucopolysaccharide polysulfate [MPS]", "values": [
      {"measurement": "inhibition of S-protein RBD mutant-heparin interaction compared with heparin", "setting": "[6]", "result": "stronger inhibition"},
      {"measurement": "inhibition of pseudotyped viral particle binding to heparin surface compared with heparin control", "setting": "[7]", "result": "stronger inhibition"},
      {"measurement": "inhibition of S-protein RBD mutant-heparin interaction compared with heparin", "setting": "[8]", "result": "comparable inhibition to heparin"},
      {"measurement": "IC50 for viral inhibition", "setting": "[9]", "result": 0.28, "unit": "µg/mL"}
    ]}
  ]
}
